From publication PMC4467398, “Preclinical antitumor activity of ST7612AA1: a new oral thiol-based histone deacetylase (HDAC) inhibitor” (Oncotarget, 2014)
Entries after “also recorded” stand apart in the source; their conditions may differ. Where two headings read alike, the source gives them in different places.

Key:
[1] = test system: NSCLC NCI-H1975; assay: In vitro proliferation assay (sulphorodamine B); assay type: cell-based; conditions: Homo sapiens, 72 h, mean ± S.E.M.
[2] = test system: Acute myeloid leukemia MV4;11; assay: In vitro proliferation assay (sulphorodamine B); assay type: cell-based; conditions: Homo sapiens, 72 h, mean ± S.E.M.
[3] = test system: ABC-DLBCL OCI-Ly10; assay: In vitro proliferation assay (MTT); assay type: cell-based; conditions: Homo sapiens, 72 h, mean ± S.E.M.
Experimental: (§1) Anti-proliferative activity was first assessed on a panel of cell lines derived from solid tumors and hematological cancers and then on a large panel of cell lines derived from mature B-cell lymphomas. […] Lymphoma cells were seeded in 96-wells tissue culture plates in complete medium and were exposed to increasing concentrations of ST7612AA1 for 48 or 72 h; the anti-proliferative activity was assessed using 3-(4,5-dimethylthiazol-2-yl)-2,5-diphenyltetrazolium bromide (MTT). The drug potency was evaluated by means of the “ALLFIT” computer program and defined as IC50 (drug concentration required for 50% inhibition of cell survival).

[4] = test system: ABC-DLBCL TMD8; assay: In vitro proliferation assay (MTT); assay type: cell-based; conditions: Homo sapiens, 72 h, mean ± S.E.M.
Experimental: as §1

[5] = test system: ABC-DLBCL U2932; assay: In vitro proliferation assay (MTT); assay type: cell-based; conditions: Homo sapiens, 72 h, mean ± S.E.M.
Experimental: as §1

[6] = test system: GCB-DLBCL DOHH2; assay: In vitro proliferation assay (MTT); assay type: cell-based; conditions: Homo sapiens, DOHH-2, 72 h, mean ± S.E.M.
Experimental: as §1

[7] = test system: GCB-DLBCL Karpas422; assay: In vitro proliferation assay (MTT); assay type: cell-based; conditions: Homo sapiens, KARPAS-422, 72 h, mean ± S.E.M.
Experimental: as §1

[8] = test system: GCB-DLBCL OCI-Ly7; assay: In vitro proliferation assay (MTT); assay type: cell-based; conditions: Homo sapiens, 72 h, mean ± S.E.M.
Experimental: as §1

[9] = test system: GCB-DLBCL OCI-Ly8; assay: In vitro proliferation assay (MTT); assay type: cell-based; conditions: Homo sapiens, 72 h, mean ± S.E.M.
Experimental: as §1

[10] = test system: GCB-DLBCL SUDHL-4; assay: In vitro proliferation assay (MTT); assay type: cell-based; conditions: Homo sapiens, SU-DHL-4, 72 h, mean ± S.E.M.
Experimental: as §1

[11] = test system: GCB-DLBCL SUDHL-6; assay: In vitro proliferation assay (MTT); assay type: cell-based; conditions: Homo sapiens, SU-DHL-6, 72 h, mean ± S.E.M.
Experimental: as §1

[12] = test system: GCB-DLBCL VAL; assay: In vitro proliferation assay (MTT); assay type: cell-based; conditions: Homo sapiens, 72 h, mean ± S.E.M.
Experimental: as §1

[13] = test system: Mantle cell lymphoma Granta-519; assay: In vitro proliferation assay (MTT); assay type: cell-based; conditions: Homo sapiens, 72 h, mean ± S.E.M.
Experimental: as §1

[14] = test system: Mantle cell lymphoma Jeko-1; assay: In vitro proliferation assay (MTT); assay type: cell-based; conditions: Homo sapiens, 72 h, mean ± S.E.M.
Experimental: as §1

[15] = test system: Mantle cell lymphoma MAVER1; assay: In vitro proliferation assay (MTT); assay type: cell-based; conditions: Homo sapiens, 72 h, mean ± S.E.M.
Experimental: as §1

[16] = test system: Mantle cell lymphoma REC-1; assay: In vitro proliferation assay (MTT); assay type: cell-based; conditions: Homo sapiens, Rec1, 72 h, mean ± S.E.M.
Experimental: as §1

[17] = test system: Splenic marginal zone lymphoma K1718; assay: In vitro proliferation assay (MTT); assay type: cell-based; conditions: Homo sapiens, 72 h, mean ± S.E.M.
Experimental: as §1

[18] = test system: Splenic marginal zone lymphoma SSK41; assay: In vitro proliferation assay (MTT); assay type: cell-based; conditions: Homo sapiens, 72 h, mean ± S.E.M.
Experimental: as §1

[19] = test system: Splenic marginal zone lymphoma VL51; assay: In vitro proliferation assay (MTT); assay type: cell-based; conditions: Homo sapiens, 72 h, mean ± S.E.M.
Experimental: as §1

[20] = test system: T-cell lymphoma HUT78; assay: In vitro proliferation assay (MTT); assay type: cell-based; conditions: Homo sapiens, 72 h, mean ± S.E.M.
Experimental: as §1

[21] = test system: cell lines derived from epithelial cancers (lung, breast, colon, ovarian) and from leukemias and lymphomas; assay: In vitro proliferation assay, first broad panel (summary); assay type: cell-based; conditions: first broad panel of human tumor cell lines; read-out: IC50 values, range over the panel
Experimental: as §1

[22] = test system: ABC-DLBCL cell lines; assay: In vitro proliferation assay, lymphoma panel (summary); assay type: cell-based; conditions: Homo sapiens
Experimental: as §1

[23] = test system: GCB-DLBCL cell lines; assay: as above; assay type: cell-based; conditions: Homo sapiens
Experimental: as §1

[24] = test system: mantle cell lymphoma (MCL) cell lines; assay: as above; assay type: cell-based; conditions: Homo sapiens
Experimental: as §1

[25] = test system: mature B cell lymphomas; assay: as above; assay type: cell-based; conditions: Homo sapiens, different mature B cell lymphomas
Experimental: as §1

[26] = test system: splenic marginal zone lymphoma (SMZL) cell lines; assay: as above; assay type: cell-based; conditions: Homo sapiens
Experimental: as §1

[27] = test system: GCB-DLBCL model DOHH2; assay: In vivo lymphoma xenograft model; design: species or system NOD-SCID mice; conditions: po at days 12, 13, 15, 16, 18, 19 after tumor injection; vs control mice
Experimental: The in vivo experiment with lymphoma model was performed in the IOR laboratory according to study protocols approved by the local Cantonal Veterinary Authority (No. 5/2011). At day 1, tumors were established by injecting DOHH2 lymphoma cells (200 μL of PBS, 8×10^6 cells/mouse) into the left flanks of 5-weeks old female NOD-SCID mice (Harlan Laboratories). Tumor size was measured on regular basis and until tumors reached around […] in diameter (day 12). Then, treatments were conducted at day 12, 13, 15, 16, 18, 19. Tumors were measured at 12, 14, 17, 21, 25 days. Tumor volumes were calculated as described above. Mice were sacrificed when physical conditions became critical or when tumors reached a weight of about 0.5 gr. For comparison between a control and a treatment group, an unpaired Mann-Whitney's test was used. A P-value <0.05 was considered significant.

[28] = PK sampling and analysis after a single oral dose of ST7612AA1 (plasma, LC-MS/MS); assay type: in vivo, CD1 mice; conditions: single oral dose of 120 mg/kg; limit of quantification 25 ng/mL
Experimental: CD1 nude mice were used. Male mice were treated with a single dose of ST7612AA1 at 120 mg/10 mL/kg p.o., using 5% Solutol HS 15 in water for injection as vehicle. Blood samples were collected at 0.25, 0.5, 1, 2, 4 and 6 h post treatment from 5 animals per time point. Levels of ST7612AA1 and ST7464AA1 were determined in plasma by quantitative LC-MS/MS having a limit of quantification of 25 ng/mL. The PK parameters Cmax (maximum plasma concentration), Tmax (time of maximum plasma concentration), Clast (last quantifiable concentration), Tlast (time of last quantifiable plasma concentration), AUClast (area under the concentration vs time curve from 0 to Tlast), AUCINF (area under the concentration vs time curve from 0 to infinity), T1/2 (terminal half-life), CL/F (apparent systemic clearance) and Vz/F (apparent terminal volume of distribution) were derived from the analyte plasma concentration vs time data according to a model independent approach for sparse data sampling by using Phoenix WinNonlin® ver. 6.3 software (Pharsight, Cetara).

Molecule `CC(=O)SCCCCC[C@H](NC(=O)[C@H]1CCC(=O)N1)C(=O)Nc1ccccc1` [ST7612AA1] has an IC50 [1] of 500 nM, an IC50 [2] of 190 ± 20 nM and an IC50 [3] of 260 nM. The IC50 [4] was 100 ± 30 nM, the IC50 [5] was 800 nM and the IC50 [6] was 46 ± 10 nM. The IC50 [7] was 2660 nM, the IC50 [8] was 560 nM and the IC50 [9] was 240 nM. It also gave an IC50 [10] of 980 nM, an IC50 [11] of 630 nM and an IC50 [12] of 2360 nM. It also gave an IC50 [13] of 470 nM, an IC50 [14] of 250 ± 10 nM and an IC50 [15] of 390 nM. It also gave an IC50 [16] of 550 nM, an IC50 [17] of 100 ± 10 nM and an IC50 [18] of 260 nM. For the same molecule, the IC50 [19] was 120 nM, the IC50 [20] was 480 ± 20 nM and the IC50 [21] was 43 to 500 nM. For the same molecule, the IC50 ([22]; read-out: IC50 range) was 101 to 805 nM, the IC50 ([22]; read-out: median IC50) was 257 nM and the IC50 ([23]; read-out: IC50 range) was 46 to 2660 nM. For the same molecule, the IC50 ([23]; read-out: median IC50) was 597 nM, the IC50 ([24]; read-out: IC50 range) was 248 to 553 nM and the IC50 ([24]; read-out: median IC50) was 433 nM. For the same molecule, the IC50 ([25]; read-out: IC50 range) was 46 to 2660 nM, the IC50 ([25]; read-out: median IC50) was 375 nM and the IC50 ([26]; read-out: IC50 range) was 102 to 257 nM. For the same molecule, the IC50 ([26]; read-out: median IC50) was 119 nM, the “tumor progression / tumor volumes” value [27] was “decreased tumor volumes; also recorded: significant delay in tumor progression” and the “ST7612AA1 in plasma after oral administration” value [28] was “not detected”.
